From article PMC4764975, “Probing the enzyme kinetics, allosteric modulation and activation of α1- and α2-subunit-containing AMP-activated protein kinase (AMPK) heterotrimeric complexes by pharmacological and physiological activators” (Biochemical Journal, 2016) come the findings set out here.

Where two headings read alike, the source gives them in different places.

What all share (test): SPR direct binding (Biacore)
For orientation: Surface plasmon resonance follows binding to a sensor surface in real time, without labels.

The target in one test is T1, BAP-tagged AMPK α1β1γ1 (Homo sapiens, UniProt P54619+Q13131+Q9Y478).
T1 construct: Recombinant full-length AMPK heterotrimeric complexes α1β1γ1, α1β2γ1, α1β2γ3, α2β1γ1, α2β2γ1 and α2β2γ3 were cloned; 6X-His (N); AviTag (BAP); made in house; host or cells: E. coli (co-expressed with BirA)
The protocol:
(§1) SPR experiments were performed on a Biacore™ 3000 instrument (GE Healthcare). BAP-tagged AMPK isoform (α1β1γ1, α1β2γ1, α2β2γ1, α2β2γ3) was captured on to a streptavidin sensor chip to levels ranging from 4000 to 6000 RU. […] Binding responses were processed using Scrubber 2 (BioLogic Software Pty Ltd) to zero, x-align, double reference and corrected for excluded volume effect of DMSO in the data. […] The compound was injected at a flow rate of 50 μl/min with total contact time of 120 s and dissociation time of 600 s. Rate parameters (kon, koff) and corresponding dissociation constant(KD=koff/kon) were determined by globally fitting all of the experimental data to a simple 1:1 interaction model using Biaeval software (GE Healthcare). To determine nt binding, 10 concentrations with 2-fold dilutions were tested in duplicate. The highest concentration tested was 2 mM. The compound was injected at a flow rate of 50 μl/min with total contact time of 120 s and dissociation time of 300 s. Equilibrium dissociation constant (KD) was determined using a steady-state affinity algorithm available within Scrubber.
(§2) We then compared the binding of nts (AMP, ADP and ATP) to α1β1γ1, α1β2γ1, α2β2γ1 and α2β2γ3 isoforms in the presence and absence of Mg^2+ and Stau, using SPR technique. […]

In another test the target is T2, BAP-tagged AMPK α2β2γ1 (Homo sapiens, UniProt O43741+P54619+P54646).
T2 construct: Recombinant full-length AMPK heterotrimeric complexes α1β1γ1, α1β2γ1, α1β2γ3, α2β1γ1, α2β2γ1 and α2β2γ3 were cloned into a tricistronic vector system; 6X-His (N); made in house; host or cells: E. coli BL21-CodonPlus (DE3)-RIPL, co-expressed with BirA
The protocol: as §1, §2

A further test addresses T3, BAP-tagged AMPK α1β2γ1 (Homo sapiens, UniProt O43741+P54619+Q13131).
T3 construct: Recombinant full-length AMPK heterotrimeric complexes α1β1γ1, α1β2γ1, α1β2γ3, α2β1γ1, α2β2γ1 and α2β2γ3 were cloned into a tricistronic vector system; 6X-His (N); made in house; host or cells: E. coli BL21-CodonPlus (DE3)-RIPL, co-expressed with BirA
The protocol: as §1
(§3) We then compared the binding of nts (AMP, ADP and ATP) to α1β1γ1, α1β2γ1, α2β2γ1 and α2β2γ3 isoforms in the presence and absence of Mg^2+ and Stau, using SPR technique.

In a further test the target is T4, BAP-tagged AMPK α2β2γ3 (Homo sapiens, UniProt O43741+P54646+Q9UGI9).
T4 construct: Recombinant full-length AMPK heterotrimeric complexes α1β1γ1, α1β2γ1, α1β2γ3, α2β1γ1, α2β2γ1 and α2β2γ3 were cloned into a tricistronic vector system; 6X-His (N); made in house; host or cells: E. coli BL21-CodonPlus (DE3)-RIPL, co-expressed with BirA
How it is done:
as §1, §3

The mark [1] stands for this setting: presence of Mg2+ and 25 nM Stau, cell spans KD1 and KD2, read-out: KD (single measurable binding affinity).
Setting [2] is: presence of Mg2+, cell spans KD1 and KD2, read-out: KD (single measurable binding affinity).
Setting [3] is: tighter site, absence of Mg2+ and Stau, read-out: KD1.
Where [4] appears, read: weaker site, absence of Mg2+ and Stau, read-out: KD2.

T4 sequence (P54646 whole entry): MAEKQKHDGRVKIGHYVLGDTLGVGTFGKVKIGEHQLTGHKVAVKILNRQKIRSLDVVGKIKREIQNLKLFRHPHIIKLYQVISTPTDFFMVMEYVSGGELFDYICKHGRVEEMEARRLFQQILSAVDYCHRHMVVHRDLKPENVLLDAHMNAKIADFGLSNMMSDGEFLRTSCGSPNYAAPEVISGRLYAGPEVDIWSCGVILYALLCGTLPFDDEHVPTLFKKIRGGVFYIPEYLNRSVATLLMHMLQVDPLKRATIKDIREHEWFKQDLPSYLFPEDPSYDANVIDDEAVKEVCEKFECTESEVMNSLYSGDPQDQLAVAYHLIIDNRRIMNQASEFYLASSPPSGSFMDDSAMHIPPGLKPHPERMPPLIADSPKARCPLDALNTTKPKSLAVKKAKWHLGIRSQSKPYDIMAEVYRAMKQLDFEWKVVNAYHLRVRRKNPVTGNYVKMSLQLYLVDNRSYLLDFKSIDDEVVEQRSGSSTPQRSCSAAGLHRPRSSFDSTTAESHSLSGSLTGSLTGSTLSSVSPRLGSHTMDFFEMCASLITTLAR
T4 sequence (O43741 whole entry): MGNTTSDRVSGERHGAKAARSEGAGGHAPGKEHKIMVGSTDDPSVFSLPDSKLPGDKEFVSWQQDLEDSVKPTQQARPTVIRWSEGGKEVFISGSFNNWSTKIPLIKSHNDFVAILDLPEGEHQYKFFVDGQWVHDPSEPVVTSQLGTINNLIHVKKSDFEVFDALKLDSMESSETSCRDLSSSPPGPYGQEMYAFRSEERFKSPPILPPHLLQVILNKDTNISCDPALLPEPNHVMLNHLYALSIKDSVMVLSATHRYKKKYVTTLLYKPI
T4 sequence (Q9UGI9 whole entry): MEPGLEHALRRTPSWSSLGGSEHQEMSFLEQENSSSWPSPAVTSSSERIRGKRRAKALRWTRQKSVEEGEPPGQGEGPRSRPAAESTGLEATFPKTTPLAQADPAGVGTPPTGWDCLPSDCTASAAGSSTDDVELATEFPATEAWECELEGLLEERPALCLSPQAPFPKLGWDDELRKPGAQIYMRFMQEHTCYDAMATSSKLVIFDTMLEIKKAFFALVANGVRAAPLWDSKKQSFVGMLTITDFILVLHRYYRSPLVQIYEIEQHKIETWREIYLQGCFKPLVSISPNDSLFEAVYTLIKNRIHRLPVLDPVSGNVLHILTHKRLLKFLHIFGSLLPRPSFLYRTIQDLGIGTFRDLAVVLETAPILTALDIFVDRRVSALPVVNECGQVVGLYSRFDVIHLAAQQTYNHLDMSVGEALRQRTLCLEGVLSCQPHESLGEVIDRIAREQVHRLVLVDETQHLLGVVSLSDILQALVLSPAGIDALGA
T2 sequence (P54646 whole entry): as the sequence (P54646 whole entry) above
T2 sequence (O43741 whole entry): as the sequence (O43741 whole entry) above
T2 sequence (P54619 whole entry): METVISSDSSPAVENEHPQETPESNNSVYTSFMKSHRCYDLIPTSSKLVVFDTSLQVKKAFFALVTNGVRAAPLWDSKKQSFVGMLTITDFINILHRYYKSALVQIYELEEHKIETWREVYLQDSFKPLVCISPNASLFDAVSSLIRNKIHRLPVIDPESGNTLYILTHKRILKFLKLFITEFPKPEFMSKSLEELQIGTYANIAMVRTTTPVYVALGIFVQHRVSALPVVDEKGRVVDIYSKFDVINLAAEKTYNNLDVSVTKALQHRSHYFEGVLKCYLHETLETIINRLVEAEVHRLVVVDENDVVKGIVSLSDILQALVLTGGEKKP
T3 sequence (Q13131 whole entry): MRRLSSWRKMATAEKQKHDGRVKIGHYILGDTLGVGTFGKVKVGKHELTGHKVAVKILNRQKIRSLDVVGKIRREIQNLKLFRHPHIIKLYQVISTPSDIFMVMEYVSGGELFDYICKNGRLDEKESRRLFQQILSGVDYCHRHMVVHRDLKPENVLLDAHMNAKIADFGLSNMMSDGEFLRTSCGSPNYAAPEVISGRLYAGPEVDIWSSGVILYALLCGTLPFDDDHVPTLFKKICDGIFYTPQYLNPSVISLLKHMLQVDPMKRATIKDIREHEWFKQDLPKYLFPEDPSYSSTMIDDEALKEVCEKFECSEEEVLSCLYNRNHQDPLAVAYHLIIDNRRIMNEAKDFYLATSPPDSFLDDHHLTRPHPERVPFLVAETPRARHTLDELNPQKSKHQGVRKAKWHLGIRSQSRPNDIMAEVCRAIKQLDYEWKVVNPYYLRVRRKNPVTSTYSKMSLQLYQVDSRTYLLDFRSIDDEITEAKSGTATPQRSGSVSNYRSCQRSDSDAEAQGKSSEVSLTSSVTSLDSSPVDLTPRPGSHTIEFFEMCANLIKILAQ
T3 sequence (O43741 whole entry): as the sequence (O43741 whole entry) above
T3 sequence (P54619 whole entry): as the sequence (P54619 whole entry) above
T1 sequence (Q13131 whole entry): as the sequence (Q13131 whole entry) above
T1 sequence (Q9Y478 whole entry): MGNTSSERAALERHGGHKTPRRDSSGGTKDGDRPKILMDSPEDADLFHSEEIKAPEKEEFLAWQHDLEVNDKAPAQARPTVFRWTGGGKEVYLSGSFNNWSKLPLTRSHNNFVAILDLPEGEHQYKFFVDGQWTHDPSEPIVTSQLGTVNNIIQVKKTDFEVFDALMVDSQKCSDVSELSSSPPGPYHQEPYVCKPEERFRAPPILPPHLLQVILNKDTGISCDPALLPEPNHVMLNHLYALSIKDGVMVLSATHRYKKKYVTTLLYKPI
T1 sequence (P54619 whole entry): as the sequence (P54619 whole entry) above

Take `Nc1ncnc2c1ncn2[C@@H]1O[C@H](COP(=O)(O)OP(=O)(O)O)[C@@H](O)[C@H]1O` [ADP]: the Kd on BAP-tagged AMPK α1β1γ1 (setting [1]) worked out at 24.4 ± 0.4 µM; on BAP-tagged AMPK α1β1γ1 (setting [2]), 33.3 ± 0.3 µM; at BAP-tagged AMPK α1β1γ1 (setting [3]), 4.75 ± 0.08 µM; at BAP-tagged AMPK α1β1γ1 (setting [4]), 1010 ± 80 µM; at BAP-tagged AMPK α2β2γ1 (setting [1]) it was 11.9 ± 0.3 µM; on BAP-tagged AMPK α2β2γ1 (setting [2]), 22.8 ± 0.5 µM. In addition, the Kd at BAP-tagged AMPK α2β2γ1 (setting [3]) was 2.47 ± 0.09 µM; on BAP-tagged AMPK α2β2γ1 (setting [4]), 2600 ± 300 µM; on BAP-tagged AMPK α1β2γ1 (setting [1]) it was 15 ± 1 µM; at BAP-tagged AMPK α1β2γ1 (setting [2]), 28.2 ± 0.3 µM; on BAP-tagged AMPK α1β2γ1 (setting [3]), 4.2 ± 0.2 µM; at BAP-tagged AMPK α1β2γ1 (setting [4]), 2600 ± 400 µM. Also, the Kd on BAP-tagged AMPK α2β2γ3 (setting [1]) turned out to be 12.5 ± 0.1 µM; at BAP-tagged AMPK α2β2γ3 (setting [2]), 19 ± 0.2 µM; on BAP-tagged AMPK α2β2γ3 (setting [3]) it was 11.2 ± 0.3 µM; at BAP-tagged AMPK α2β2γ3 (setting [4]), 1500 ± 200 µM.
